Assay results: patent publication US6686469B2, “Pesticidal pyrimidine-derivatives” (Novartis Animal Health US, Inc., priority 1999, dated 2004)

How the values were obtained:
Heliothis virescens = assay: Activity against Heliothis virescens; format: in vivo; conditions: young soya plants sprayed with 100 ppm active ingredient, first-stage caterpillars, 6 days later
Experimental: Young soya plants are sprayed with an aqueous emulsion spray mixture containing 100 ppm of active ingredient, when the spray coating has dried on they are colonised with 10 caterpillars of the first stage of Heliothis virescens and then placed in a plastic container. The percentage reduction of the population and of the feeding damage (% response) is determined 6 days later by comparing the total number of dead caterpillars and the feeding damage on the treated plants with those on the untreated plants.

Compound `Fc1cccc(F)c1-c1ncc(-c2ccc(Br)cc2)cn1` [Compound P1.3, 5-(4-bromophenyl)-2-(2,6-difluorophenyl)-pyrimidine] has a melting point of 193 to 194 °C.
For `CC(C)(C)c1ccc(-c2ccc(-c3cnc(-c4c(Cl)cccc4Cl)nc3)cc2)cc1` [Compound 1.10], the melting point was 200 to 202 °C.
Compound `Fc1cccc(F)c1-c1nccc(-c2ccc(-c3ccc(OC(F)(F)F)cc3)cc2)n1` [Compound 2.3] has a melting point of 102 to 103 °C.
For `Fc1cccc(Cl)c1-c1ncc(-c2ccc(-c3ccc(OC(F)(F)F)cc3)cc2)cn1` [Compound 1.12], the melting point was 160 to 163 °C.
`Fc1cccc(F)c1-c1nccc(-c2ccc(-c3ccc(Cl)c(Cl)c3)cc2)n1` [Compound 2.6] gave a melting point of 134 to 140 °C.
With `FC(F)(F)Oc1ccc(-c2ccc(-c3cnc(-c4c(Cl)cccc4Cl)nc3)cc2)cc1` [Compound 1.4] the melting point was 179 to 181 °C.
For `Clc1ccc(-c2ccc(-c3cnc(-c4c(Cl)cccc4Cl)nc3)cc2)cc1Cl` [Compound 1.6], the melting point was 224 to 226 °C.
`COc1ccc(-c2ccc(-c3cnc(-c4c(Cl)cccc4Cl)nc3)cc2)cc1` [Compound 1.7] gave a melting point of 242 to 244 °C.
In the case of `CCOc1nc(-c2c(F)cccc2F)ncc1-c1ccc(-c2ccc(OC(F)(F)F)cc2)cc1` [Compound 1.58], the melting point is reported as 146 to 147 °C.
Compound `CCSc1nc(-c2c(F)cccc2F)ncc1-c1ccc(-c2ccc(C(F)(F)F)cc2)cc1` [Compound 1.73] has a melting point of 145 to 146 °C.
Compound `Fc1cccc(F)c1-c1ncc(-c2ccc(-c3cccc(C(F)(F)F)c3)cc2)cn1` [Compound 1.18] has a melting point of 217 to 218 °C.
With `Fc1cccc(F)c1C1N=CC=C(c2ccc(Br)cc2)N1Cl` (stereo not drawn) [Compound 3.354, 4-(4-bromophenyl)-2-(2,6-difluorophenyl)-3-chloropyrimidine] the melting point was 146 to 148 °C.
Work on `CCSc1nc(-c2c(F)cccc2F)ncc1-c1ccc(-c2ccc(OC(F)(F)F)cc2)cc1` [Compound 1.72] yielded a melting point of 127 to 128 °C.
In the case of `Fc1cccc(Cl)c1-c1ncc(-c2ccc(-c3ccc(C(F)(F)F)cc3)cc2)cn1` [Compound 1.17], the “efficacy: percentage reduction of the population and of the feeding damage (% response)” value (Heliothis virescens) is reported as “over 80%”.
`Fc1cccc(F)c1-c1nccc(-c2ccc(-c3cc(Cl)cc(Cl)c3)cc2)n1` [Compound 2.5] gave a melting point of 116 to 126 °C.
In the case of `Fc1cccc(F)c1-c1nccc(-c2ccc(-c3ccccc3C(F)(F)F)cc2)n1` [Compound 2.12], the melting point is reported as 179 to 180 °C.
With `Fc1ccc(-c2ccc(-c3cnc(-c4c(F)cccc4Cl)nc3)cc2)cc1Cl` [Compound 1.11] the melting point was 186 to 189 °C.
`Fc1cccc(Cl)c1-c1ncc(-c2ccc(-c3ccc(Cl)c(Cl)c3)cc2)cn1` [Compound 1.13] gave a melting point of 196 to 199 °C.
`Fc1cccc(F)c1-c1ncc(-c2ccc(-c3ccc(C(F)(F)F)cc3)cc2)cn1` [Compound 1.2] gave a melting point of 252 to 254 °C.
`Clc1ccc(-c2ccc(-c3cnc(-c4c(Cl)cccc4Cl)nc3)cc2)cc1` [Compound 1.8] gave a melting point of 205 to 220 °C.
`Fc1cccc(F)c1-c1nccc(-c2ccc(Br)cc2)n1` [Compound P1.5, 4-(4-bromophenyl)-2-(2,6-difluorophenyl)-pyrimidine] gave a melting point of 130 to 131 °C.
With `CCOc1nc(-c2c(F)cccc2F)ncc1-c1ccc(-c2cc(Cl)cc(Cl)c2)cc1` [Compound 1.60] the melting point was 154 to 155 °C.
Compound `CCNc1nc(-c2c(F)cccc2F)ncc1-c1ccc(-c2cc(Cl)cc(Cl)c2)cc1` [Compound 1.68] has a melting point of 202 to 203 °C.
For `Fc1cccc(F)c1-c1nccc(-c2ccc(-c3ccc(Cl)cc3Cl)cc2)n1` [Compound 2.9], the melting point was 86 to 87 °C.
In the case of `FC(F)(F)c1ccc(-c2ccc(-c3cnc(-c4c(Cl)cccc4Cl)nc3)cc2)cc1` [Compound 1.3], the melting point is reported as 207 to 208 °C.
`Fc1ccc(-c2ccc(-c3cnc(-c4c(F)cccc4F)nc3)cc2)cc1` [Compound 1.23] showed a melting point of 212 to 213 °C.
`Clc1cc(Cl)cc(-c2ccc(-c3cnc(-c4c(Cl)cccc4Cl)nc3)cc2)c1` [Compound 1.9] showed a melting point of over 220 °C.
In the case of `CCNc1nc(-c2c(F)cccc2F)ncc1-c1ccc(-c2ccc(C(F)(F)F)cc2)cc1` [Compound 1.67], the melting point is reported as 189 to 190 °C.
`CN(C)c1nc(-c2c(F)cccc2F)ncc1-c1ccc(-c2cc(Cl)cc(Cl)c2)cc1` [Compound 1.71] showed a melting point of 200 to 202 °C.
In the case of `Fc1cccc(F)c1-c1nccc(-c2ccc(-c3ccc(-c4ccccc4)cc3)cc2)n1` [Compound 2.7], the melting point is reported as 258 to 259 °C.
`COc1ccc(-c2ccc(-c3cnc(-c4c(F)cccc4Cl)nc3)cc2)cc1` [Compound 1.15] showed a melting point of 176 to 179 °C.
In the case of `CN(C)c1nc(-c2c(F)cccc2F)ncc1-c1ccc(-c2ccc(C(F)(F)F)cc2)cc1` [Compound 1.70], the melting point is reported as 166 to 168 °C.
For `Fc1cccc(F)c1-c1nccc(-c2ccc(-c3ccc(C(F)(F)F)cc3)cc2)n1` [Compound 2.2, 2-(2,6-difluorophenyl)-4-(4′-trifluoromethylbiphenyl-4-yl)-pyrimidine], the melting point was 141 to 142 °C.
`CN(C)c1nc(-c2c(F)cccc2F)ncc1-c1ccc(-c2ccc(OC(F)(F)F)cc2)cc1` [Compound 1.69] showed a melting point of 146 to 147 °C.
`Fc1cccc(F)c1-c1ncc(-c2ccc(-c3cccc(Cl)c3)cc2)cn1` [Compound 1.37] showed a melting point of 178 to 179 °C.
`Fc1ccc(-c2ccc(-c3ccnc(-c4c(F)cccc4F)n3)cc2)cc1` [Compound 2.8] showed a melting point of 145 to 146 °C.
Work on `Fc1cccc(F)c1-c1ncc(-c2ccc(-c3ccccc3C(F)(F)F)cc2)cn1` [Compound 1.24] yielded a melting point of 100 to 102 °C.
For `Fc1cccc(F)c1-c1ncc(-c2ccc(-c3ccc(OC(F)(F)F)cc3)cc2)cn1` [Compound 1.19, 2-(2,6-difluorophenyl)-5-(4′-trifluoromethoxybiphenyl-4-yl)-pyrimidine], the melting point was 215 to 216 °C.
`CCSc1nc(-c2c(F)cccc2F)ncc1-c1ccc(-c2cc(Cl)cc(Cl)c2)cc1` [Compound 1.74] gave a melting point of 154 to 156 °C.
In the case of `COc1ccccc1-c1ccc(-c2cnc(-c3c(F)cccc3F)nc2)cc1` [Compound 1.20], the melting point is reported as 150 to 151 °C.
For `Fc1cccc(F)c1-c1ncc(-c2ccc(-c3ccc(Cl)cc3)cc2)cn1` [Compound 1.25], the melting point was 220 to 222 °C.
In the case of `Fc1cccc(F)c1-c1nccc(-c2ccc(-c3cccc(Cl)c3)cc2)n1` [Compound 2.10], the melting point is reported as 82 to 83 °C.
Compound `Fc1ccc(-c2ccc(-c3ccnc(-c4c(F)cccc4F)n3)cc2)cc1Cl` [Compound 2.1] has a melting point of 133 to 134 °C.
For `N#CN1C(c2ccc(Br)cc2)=CC=NC1c1c(F)cccc1F` (stereo not drawn) [Compound 3.355, 4-(4-bromophenyl)-3-cyano-2-(2,6-difluorophenyl)-pyrimidine], the melting point was 146 to 148 °C.
In the case of `Fc1cccc(F)c1-c1ncc(-c2ccc(-c3ccc(-c4ccccc4)cc3)cc2)cn1` [Compound 1.22], the melting point is reported as over 260 °C.
In the case of `Fc1cccc(F)c1-c1nccc(-c2ccc(-c3ccc(Cl)cc3)cc2)n1` [Compound 2.11], the melting point is reported as 167 to 168 °C.
In the case of `CCOc1nc(-c2c(F)cccc2F)ncc1-c1ccc(-c2ccc(C(F)(F)F)cc2)cc1` [Compound 1.59], the melting point is reported as 170 to 172 °C.
In the case of `Fc1cccc(Cl)c1-c1ncc(-c2ccc(-c3cccc(C(F)(F)F)c3)cc2)cn1` [Compound 1.14], the melting point is reported as 187 to 190 °C.
